The text below walks through data of US20250222146A1, “Radiopharmaceuticals Targeting Somatostatin Receptor 2 and Uses Thereof” (RayzeBio, Inc., priority 2023, published 2025).

pKi: −log10 of the molar value. Numbered stars: 1 amine (or outer) side, 2 acyl side, 3 side chain; on linkers, the order of the positions; unused ones are H or OH. Square brackets hold non-standard residues; d marks the D form. Side chains are listed from the residue outwards. Peptide text beside a SMILES is read from it. * marks the point of attachment. ξ: configuration not given here. DOTA(Lu)NH(CH2)6NHCOCH2 = O=C(CN1CCN2CCN3CCN(CC1)CC(=O)[O][Lu]([O]C(=O)C2)[O]C(=O)C3)NCCCCCCNC(=O)C*; DOTA(Lu) = O=C1CN2CCN3CCN(CC(=O)*)CCN(CC2)CC(=O)[O][Lu]([O]1)[O]C(=O)C3; Ala(piperidin-4-yl) = O=C([C@H](CC1CCN([*:3])CC1)N[*:1])[*:2]; DOTA = O=C(O)CN1CCN(CC(=O)O)CCN(CC(=O)*)CCN(CC(=O)O)CC1; dTrp(βS-Me) = C[C@@H](c1c[nH]c2ccccc12)[C@@H](N)C(=O)O; N(6-aminohexyl)Gly = O=C(CN(CCCCCCN[*:3])[*:1])[*:2]; dTrp(6-Cl) = N[C@H](Cc1c[nH]c2cc(Cl)ccc12)C(=O)O; Tyr(Ph) = N[C@@H](Cc1ccc(Oc2ccccc2)cc1)C(=O)O; NOTA = O=C(O)CN1CCN(CC(=O)O)CCN(CC(=O)*)CC1; X16 = NC1CCC(C[C@H](N[*:1])C(=O)[*:2])CC1; dTpi = O=C(O)[C@H]1Cc2c([nH]c3ccccc23)CN1; Phe(3-OMe) = COc1cccc(C[C@H](N)C(=O)O)c1; Dip = N[C@H](C(=O)O)C(c1ccccc1)c1ccccc1; Lys(5ξ-OH) = NCC(O)CC[C@H](N)C(=O)O; Ethylenediamine = C(CN[*:2])N[*:1]; Hyp = O=C(O)[C@@H]1C[C@@H](O)CN1; Lys(Me) = CNCCCC[C@H](N)C(=O)O; X13 = NCCCCN(N[*:1])C(=O)[*:2]; dPhg = N[C@@H](C(=O)O)c1ccccc1; NMehCys = CN[C@@H](CCS)C(=O)O; NMeK = CN[C@@H](CCCCN)C(=O)O; NMeDap = CN[C@@H](CN)C(=O)O; CO = O=C([*:1])[*:2]; Bn = c1ccc(C*)cc1 A value given as a limit tells only on which side of the number the result lay.

One assay deals with SSTR2 (Homo sapiens, UniProt P30874). In words: SSTR binding affinity by radioligand binding competition assay ([125I]-Tyr11-Somatostatin, membrane extracts). The settings on record: radioligand competition, [125I]-Tyr11-Somatostatin 0.1 nM, membrane extracts; Ki from IC50 by Cheng Prusoff; read-out: SSTR2 Ki.
Chain of SSTR2 (P30874 whole entry): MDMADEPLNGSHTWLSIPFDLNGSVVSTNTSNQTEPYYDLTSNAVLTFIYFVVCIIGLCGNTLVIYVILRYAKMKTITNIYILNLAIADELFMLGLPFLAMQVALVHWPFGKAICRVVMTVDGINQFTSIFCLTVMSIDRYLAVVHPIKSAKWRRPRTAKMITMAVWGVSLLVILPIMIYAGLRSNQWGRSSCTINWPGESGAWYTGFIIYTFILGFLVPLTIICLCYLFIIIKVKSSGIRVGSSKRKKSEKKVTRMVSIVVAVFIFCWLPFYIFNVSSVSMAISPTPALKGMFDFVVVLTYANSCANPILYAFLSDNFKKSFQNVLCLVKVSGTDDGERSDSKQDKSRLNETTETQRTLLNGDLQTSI
Broadly, the pKi is −log10 of the Ki, conventionally taken in molar units. Regarding `CNCCCC[C@@H]1NC(=O)[C@@H]([C@@H](C)c2c[nH]c3ccccc23)NC(=O)[C@H](Cc2ccc(O)cc2)NC(=O)[C@H](CCCCNC(=O)CN2CCN3CCN4CCN(CC2)CC(=O)[O][Lu]([O]C(=O)C3)[O]C(=O)C4)N(C)C(=O)[C@H](Cc2ccccc2)NC(=O)[C@H]([C@@H](C)O)NC1=O` [RB-0006174] (cyclo(F[NMeK](DOTA(Lu))Y[dTrp(βS-Me)][Lys(Me)]T)), the pKi is > 9.00.
The same measure, in the same setting: with `C[C@@H](O)[C@@H]1NC(=O)[C@H](CC2CCNCC2)NC(=O)[C@@H](Cc2c[nH]c3cc(Cl)ccc23)NC(=O)[C@H](Cc2ccc(O)cc2)NC(=O)[C@H](CCSCC(=O)NCCCCCCNC(=O)CN2CCN3CCN4CCN(CC2)CC(=O)[O][Lu]([O]C(=O)C3)[O]C(=O)C4)N(C)C(=O)[C@H](Cc2ccccc2)NC1=O` [RB-0006189] (cyclo(F[NMehCys](DOTA(Lu)NH(CH2)6NHCOCH2)Y[dTrp(6-Cl)][Ala(piperidin-4-yl)]T)) the figure was 8.48 to 9.00.
Still for that read-out and setting: with `COc1cccc(C[C@@H]2NC(=O)[C@H](CCCCNC(=O)CN3CCN4CCN5CCN(CC3)CC(=O)[O][Lu]([O]C(=O)C4)[O]C(=O)C5)N(C)C(=O)[C@H](Cc3ccccc3)NC(=O)[C@H]([C@@H](C)O)NC(=O)[C@H](CC3CCNCC3)NC(=O)[C@@H]([C@@H](C)c3c[nH]c4ccccc34)NC2=O)c1` [RB-0006209] (cyclo(F[NMeK](DOTA(Lu))[Phe(3-OMe)][dTrp(βS-Me)][Ala(piperidin-4-yl)]T)) the figure was 8.48 to 9.00.
Consider `C[C@@H](O)[C@@H]1NC(=O)[C@H](CC2CCNCC2)NC(=O)[C@H]2Cc3c([nH]c4ccccc34)CN2C(=O)[C@H](Cc2ccc(O)cc2)NC(=O)[C@H](CCCCNC(=O)CN2CCN3CCN4CCN(CC2)CC(=O)[O][Lu]([O]C(=O)C3)[O]C(=O)C4)N(C)C(=O)[C@H](Cc2ccccc2)NC1=O` [RB-0006213] (cyclo(F[NMeK](DOTA(Lu))Y[dTpi][Ala(piperidin-4-yl)]T)), for which the pKi was 7.00 to 7.48.
`C[C@@H](O)[C@@H]1NC(=O)[C@H](CC2CCNCC2)NC(=O)[C@@H]([C@@H](C)c2c[nH]c3ccccc23)NC(=O)[C@H](Cc2ccc(O)cc2)NC(=O)[C@H](CNC(=O)[C@H](CCC(=O)O)NC(=O)CN2CCN3CCN4CCN(CC2)CC(=O)[O][Lu]([O]C(=O)C3)[O]C(=O)C4)N(C)C(=O)[C@H](Cc2ccccc2)NC1=O` [RB-0006215] (cyclo(F[NMeDap]([Glu-DOTA(Lu)])Y[dTrp(βS-Me)][Ala(piperidin-4-yl)]T)): the negative logarithm of the Ki (pKi) was 7.48 to 8.00.
As to `C[C@@H](O)[C@@H]1NC(=O)N(CCCCN)NC(=O)[C@@H](Cc2c[nH]c3ccccc23)NC(=O)[C@H](Cc2ccc(O)cc2)NC(=O)[C@H](CCCCNC(=O)CN2CCN3CCN4CCN(CC2)CC(=O)[O][Lu]([O]C(=O)C3)[O]C(=O)C4)N(C)C(=O)[C@H](Cc2ccccc2)NC1=O` [RB-0006217] (cyclo(F[NMeK](DOTA(Lu))Y[dW][X13]T)), the negative logarithm of the Ki (pKi) is > 9.00.
On the same count and under the same terms, with `C[C@@H](O)[C@@H]1NC(=O)[C@H](CC2CCNCC2)NC(=O)[C@@H]([C@@H](C)c2c[nH]c3ccccc23)NC(=O)[C@H](Cc2ccc(Oc3ccccc3)cc2)NC(=O)[C@H](CCCCNC(=O)CN2CCN3CCN4CCN(CC2)CC(=O)[O][Lu]([O]C(=O)C3)[O]C(=O)C4)N(C)C(=O)[C@H](Cc2ccccc2)NC1=O` [RB-0006237] (cyclo(F[NMeK](DOTA(Lu))[Tyr(Ph)][dTrp(βS-Me)][Ala(piperidin-4-yl)]T)) the figure was 8.00 to 8.48.
For `C[C@@H](O)[C@@H]1NC(=O)[C@H](CC2CCNCC2)NC(=O)[C@@H]([C@@H](C)c2c[nH]c3ccccc23)NC(=O)[C@H](C(c2ccccc2)c2ccccc2)NC(=O)[C@H](CCCCNC(=O)CN2CCN3CCN4CCN(CC2)CC(=O)[O][Lu]([O]C(=O)C3)[O]C(=O)C4)N(C)C(=O)[C@H](Cc2ccccc2)NC1=O` [RB-0006239] (cyclo([Dip][dTrp(βS-Me)][Ala(piperidin-4-yl)]TF[NMeK](DOTA(Lu)))), the negative logarithm of the Ki (pKi) was 7.48 to 8.00.
`C[C@@H](O)[C@@H]1NC(=O)[C@H](CC2CCNCC2)NC(=O)[C@@H]([C@@H](C)c2c[nH]c3ccccc23)NC(=O)[C@H](Cc2ccc(O)cc2)NC(=O)[C@H](CCCCNC(=O)CN2CCN(CC(=O)O)CCN(CC(=O)O)CC2)N(C)C(=O)[C@H](Cc2ccccc2)NC1=O` [RB-0006286] (cyclo([NMeK](NOTA)Y[dTrp(βS-Me)][Ala(piperidin-4-yl)]TF)): the negative-log Ki (pKi) was 8.48 to 9.00.
On to `C[C@@H](O)[C@@H]1NC(=O)[C@H](CCC(O)CN)NC(=O)[C@@H](Cc2c[nH]c3ccccc23)NC(=O)[C@H](Cc2ccc(O)cc2)NC(=O)[C@H](CCSCC(=O)NCCCCCCNC(=O)CN2CCN3CCN4CCN(CC2)CC(=O)[O][Lu]([O]C(=O)C3)[O]C(=O)C4)N(C)C(=O)[C@H](Cc2ccccc2)NC1=O` (stereo partly drawn) [RB-0006317] (cyclo(F[NMehCys](DOTA(Lu)NH(CH2)6NHCOCH2)Y[dW][Lys(5ξ-OH)]T)), for which the negative logarithm of the Ki (pKi) was > 9.00.
On the same count and under the same terms, with `C[C@@H]1NC(=O)[C@H](CC2CCNCC2)NC(=O)[C@@H]([C@@H](C)c2c[nH]c3ccccc23)NC(=O)[C@H](Cc2ccc(O)cc2)NC(=O)[C@H](CCCCNC(=O)CN2CCN3CCN4CCN(CC2)CC(=O)[O][Lu]([O]C(=O)C3)[O]C(=O)C4)N(C)C(=O)[C@H](Cc2ccccc2)NC1=O` [RB-0006319] (cyclo(AF[NMeK](DOTA(Lu))Y[dTrp(βS-Me)][Ala(piperidin-4-yl)])) the figure was > 9.00.
For `C[C@@H](O)[C@@H]1NC(=O)[C@H](CCC(O)CN)NC(=O)[C@H](Cc2c[nH]c3ccccc23)NC(=O)[C@H](Cc2ccc(O)cc2)NC(=O)[C@H](CCSCC(=O)NCCCCCCNC(=O)CN2CCN3CCN4CCN(CC2)CC(=O)[O][Lu]([O]C(=O)C3)[O]C(=O)C4)N(C)C(=O)[C@H](Cc2ccccc2)NC1=O` (stereo partly drawn) [RB-0006385] (cyclo(F[NMehCys](DOTA(Lu)NH(CH2)6NHCOCH2)YW[Lys(5ξ-OH)]T)), the negative-log Ki (pKi) is > 9.00.
On the same count and under the same terms, with `C[C@@H](O)[C@@H]1NC(=O)[C@H](CC2CCC(N)CC2)NC(=O)[C@@H]([C@@H](C)c2c[nH]c3ccccc23)NC(=O)[C@H](Cc2ccc(O)cc2)NC(=O)[C@H](CCCCNC(=O)CN2CCN3CCN4CCN(CC2)CC(=O)[O][Lu]([O]C(=O)C3)[O]C(=O)C4)N(C)C(=O)[C@H](Cc2ccccc2)NC1=O` (stereo partly drawn) [RB-0006387] (cyclo(F[NMeK](DOTA(Lu))Y[dTrp(βS-Me)][X16]T)) the figure was > 9.00; with `C[C@@H](O)[C@@H]1NC(=O)[C@H](CC2CCNCC2)NC(=O)[C@@H]([C@@H](C)c2c[nH]c3ccccc23)NC(=O)[C@H](Cc2ccc(O)cc2)NC(=O)CN(CCCCCCNC(=O)CN2CCN3CCN4CCN(CC2)CC(=O)[O][Lu]([O]C(=O)C3)[O]C(=O)C4)C(=O)[C@H](Cc2ccccc2)NC1=O` [RB-0006389] (cyclo(F[N(6-aminohexyl)Gly](DOTA(Lu))Y[dTrp(βS-Me)][Ala(piperidin-4-yl)]T)), > 9.00.

The same assay, now with this note: read-out: SSTR2 Ki; radioligand competition, [125I]-Tyr11-Somatostatin 0.1 nM, membrane extracts; Ki from IC50 by Cheng Prusoff.
For the compound `C[C@@H](c1c[nH]c2ccccc12)[C@H]1NC(=O)[C@@H](c2ccccc2)NC(=O)[C@@H]2C[C@@H](OC(=O)NCCNC(=O)CN3CCN(CC(=O)O)CCN(CC(=O)O)CCN(CC(=O)O)CC3)CN2C(=O)[C@H](Cc2ccccc2)NC(=O)[C@H](Cc2ccc(OCc3ccccc3)cc2)NC(=O)[C@H](CC2CCNCC2)NC1=O` [RB-0006391] (cyclo(F[Hyp]([CO-Ethylenediamine-DOTA])[dPhg][dTrp(βS-Me)][Ala(piperidin-4-yl)]Y(Bn))), the negative logarithm of the Ki (pKi) is 7.00 to 7.48.
